Drawing on publication PMC10038056, “Synthesis, biological evaluation and theoretical studies of (E)-1-(4-sulfamoyl-phenylethyl)-3-arylidene-5-aryl-1H-pyrrol-2(3H)-ones as human carbonic anhydrase inhibitors” (Journal of Enzyme Inhibition and Medicinal Chemistry, 2023), this text covers melting point and Ki for 20 compounds.

Broadly, the melting point is the temperature, or range, at which the solid turns liquid. As a reminder, the Ki is the equilibrium dissociation constant of an inhibitor or competing ligand from its target. Low values mean tighter binding, high ones weaker binding.

In series [1] the target is hCA I (Homo sapiens, UniProt P00915). Briefly: Stopped-flow CO2 hydrase assay, hCA I.
Sequence of hCA I (P00915 whole entry): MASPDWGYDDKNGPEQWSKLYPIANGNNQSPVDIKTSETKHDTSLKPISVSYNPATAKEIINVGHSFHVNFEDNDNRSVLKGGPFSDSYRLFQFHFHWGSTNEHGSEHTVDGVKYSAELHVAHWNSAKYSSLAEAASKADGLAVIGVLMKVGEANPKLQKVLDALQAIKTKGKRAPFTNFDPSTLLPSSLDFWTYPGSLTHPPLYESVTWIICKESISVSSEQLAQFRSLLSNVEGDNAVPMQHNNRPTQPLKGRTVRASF
Description: (§1) (AAZ), a commonly used sulphonamide inhibitor was used for comparing the inhibition data. The Inhibition effects of these compounds on enzyme activities were evaluated under in-vitro conditions. The CA catalysed CO2 hydration activity was measured using an Applied Photophysics stopped-flow instrument. […] In the same way, the uncatalyzed rates were analysed and deducted from the total measured rates. […] The inhibitor and enzyme solutions were preincubated at room temperature for 15 min prior to the experiment to promote the formation of the E-I complex. By employing nonlinear least-squares methods using PRISM 3 and the Cheng-Prusoff equation, the inhibition constants were determined, as was previously reported[18–20]^,[21] and indicate the average of at least three separate measurements that fall between the range of 5 and 10%.
In series [2] the target is hCA II (Homo sapiens, UniProt P00918). Briefly: Stopped-flow CO2 hydrase assay, hCA II.
Description: as §1
The target in series [3] is hCA IX (Homo sapiens, UniProt Q16790). Kind of series: Stopped-flow CO2 hydrase assay, hCA IX.
Description: as §1
The target in series [4] is hCA XII (Homo sapiens, UniProt O43570). Briefly: Stopped-flow CO2 hydrase assay, hCA XII.
Sequence of hCA XII (O43570 25-354): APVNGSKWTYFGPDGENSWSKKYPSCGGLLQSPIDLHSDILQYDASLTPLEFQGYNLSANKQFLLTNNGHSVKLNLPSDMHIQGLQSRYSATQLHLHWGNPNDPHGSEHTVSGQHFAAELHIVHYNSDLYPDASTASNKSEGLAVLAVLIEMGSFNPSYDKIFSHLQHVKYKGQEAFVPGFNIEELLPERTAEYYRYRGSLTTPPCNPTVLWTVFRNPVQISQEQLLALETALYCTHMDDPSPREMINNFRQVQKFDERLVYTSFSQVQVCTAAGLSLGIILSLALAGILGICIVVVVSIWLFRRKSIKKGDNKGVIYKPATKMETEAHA
Description: as §1
[5] abbreviates: stopped flow, mean from 3 assays, errors 5–10%.

In turn, `NS(=O)(=O)c1ccc(CCN2C(=O)/C(=C/c3ccc(Cl)cc3)C=C2c2ccc(Cl)cc2)cc1` [Compound 3o, (E)-4-(2-(3-(4-chlorobenzylidene)-5-(4-chlorophenyl)-2-oxo-2,3-dihydro-1H-pyrrol-1-yl)ethyl)benzenesulphonamide] registered a melting point of 163 to 164 °C. The Ki in series [1] (setting [5]) amounted to 5.09 µM. The inhibition constant Ki in series [2] stood at 1890 nM. This compound also came in with a Ki in series [3] of 68.9 nM. This compound registered an inhibition constant Ki in series [4] (setting [5]) of 0.0789 µM.

`NS(=O)(=O)c1ccc(CCN2C(=O)/C(=C/c3ccc(Br)cc3)C=C2c2ccc(Cl)cc2)cc1` [Compound 3p, (E)-4-(2-(3-(4-bromobenzylidene)-5-(4-chlorophenyl)-2-oxo-2,3-dihydro-1H-pyrrol-1-yl)ethyl)benzenesulphonamide] had a melting point of 176 to 177 °C. The compound further registered an inhibition constant Ki in series [1] (setting [5]) of 5.87 µM. Further, the affinity in series [2] corresponds to a Ki of 3850 nM. The Ki in series [3] amounted to 74.3 nM. Affinity in series [4] (setting [5]) was put at a Ki of 0.0854 µM.

Turning to `CC(C)(C)c1ccc(C2=C/C(=C\c3ccc(Cl)cc3)C(=O)N2CCc2ccc(S(N)(=O)=O)cc2)cc1` [Compound 3s, (E)-4-(2-(5-(4-(tert-butyl)phenyl)-3-(4-chlorobenzylidene)-2-oxo-2,3-dihydro-1H-pyrrol-1-yl)ethyl)benzenesulphonamide], the melting point was 196 to 197 °C. In series [1] (setting [5]), this compound yielded a Ki of 7.93 µM. In series [2], this compound returned a Ki of 4360 nM. Moreover, in series [3], the inhibitory constant (Ki) came to 432 nM. The compound further showed an inhibition constant (Ki) in series [4] (in µM) of 0.34 µM. Also, the Ki in series [4] (setting [5]) amounted to 0.342 µM.

Compound `CC(C)(C)c1ccc(C2=C/C(=C\c3ccc(F)cc3)C(=O)N2CCc2ccc(S(N)(=O)=O)cc2)cc1` [Compound 3r, (E)-4-(2-(5-(4-(tert-butyl)phenyl)-3-(4-fluorobenzylidene)-2-oxo-2,3-dihydro-1H-pyrrol-1-yl)ethyl)benzenesulphonamide] returned a melting point of 187 to 188 °C. This compound also yielded a Ki in series [1] (setting [5]) of 6 µM. The compound also displayed a Ki in series [2] of 1260 nM. In series [3], this compound registered a Ki of 418 nM. The compound also had a Ki in series [4] (setting [5]) of 0.356 µM.

On to `NS(=O)(=O)c1ccc(CCN2C(=O)/C(=C/c3ccc(F)cc3)C=C2c2ccccc2)cc1` [Compound 3b, (E)-4-(2-(3-(4-fluorobenzylidene)-2-oxo-5-phenyl-2,3-dihydro-1H-pyrrol-1-yl)ethyl)benzenesulphonamide], for which the melting point was in the range of 170 to 171 °C. The compound further showed a Ki in series [1] (setting [5]) of 0.369 µM. In series [2], this compound returned a Ki of 81.4 nM. This compound also had a Ki in series [3] of 72.7 nM. In addition, affinity in series [4] (setting [5]) was put at a Ki of 0.0456 µM.

`Cc1ccc(C2=C/C(=C\c3ccccc3)C(=O)N2CCc2ccc(S(N)(=O)=O)cc2)cc1` [Compound 3e, (E)-4-(2-(3-benzylidene-2-oxo-5-(p-tolyl)-2,3-dihydro-1H-pyrrol-1-yl)ethyl)benzenesulphonamide] returned a melting point of 189 to 190 °C. In addition, the Ki in series [1] (setting [5]) came out at 3.2 µM. In series [2], the affinity corresponds to a Ki of 471 nM. Also, the inhibitory constant (Ki) in series [3] came to 117 nM. In addition, the Ki in series [4] (setting [5]) stood at 0.0584 µM.

`Cc1ccc(C2=C/C(=C\c3ccc(Cl)cc3)C(=O)N2CCc2ccc(S(N)(=O)=O)cc2)cc1` [Compound 3g, (E)-4-(2-(3-(4-chlorobenzylidene)-2-oxo-5-(p-tolyl)-2,3-dihydro-1H-pyrrol-1-yl)ethyl)benzenesulphonamide] yielded a melting point of 224 to 225 °C. In series [1] (setting [5]), this compound yielded a Ki of 4.39 µM. Also, the affinity in series [2] corresponds to a Ki of 942 nM. This compound also yielded a Ki in series [3] of 95.5 nM. This compound also came in with a Ki in series [4] (setting [5]) of 0.0734 µM.

The compound `NS(=O)(=O)c1ccc(CCN2C(=O)/C(=C/c3ccccc3)C=C2c2ccccc2)cc1` [Compound 3a, (E)-4-(2-(3-benzylidene-2-oxo-5-phenyl-2,3-dihydro-1H-pyrrol-1-yl)ethyl) benzenesulphonamide] had a melting point of 167 to 168 °C. Moreover, in series [1] (setting [5]), the Ki came out at 0.634 µM. Further, affinity in series [2] was put at a Ki of 368 nM. The affinity in series [3], expressed as Ki, was 93.8 nM. The compound also had a Ki in series [4] (setting [5]) of 0.0621 µM.

`CC(C)(C)c1ccc(C2=C/C(=C\c3ccccc3)C(=O)N2CCc2ccc(S(N)(=O)=O)cc2)cc1` [Compound 3q, (E)-4-(2-(3-benzylidene-5-(4-(tert-butyl)phenyl)-2-oxo-2,3-dihydro-1H-pyrrol-1-yl)ethyl)benzenesulphonamide]: the melting point was in the range of 183 to 184 °C. Besides, affinity in series [1] (in µM) was put at a Ki of 8.5 µM. The Ki in series [1] (setting [5]) was determined as 8.5 µM. The same compound had a Ki in series [2] of 1650 nM. The same compound showed a Ki in series [3] of 468 nM. For the same compound, the inhibition constant (Ki) in series [4] (setting [5]) came to 0.396 µM.

`CC(C)(C)c1ccc(C2=C/C(=C\c3ccc(Br)cc3)C(=O)N2CCc2ccc(S(N)(=O)=O)cc2)cc1` [Compound 3t, (E)-4-(2-(3-(4-bromobenzylidene)-5-(4-(tert-butyl)phenyl)-2-oxo-2,3-dihydro-1H-pyrrol-1-yl)ethyl)benzenesulphonamide] displayed a melting point of 204 to 205 °C. In addition, in series [1] (in µM), the Ki is 9.3 µM. The same compound returned a Ki in series [1] (setting [5]) of 9.27 µM. Also, in series [2], the inhibition constant (Ki) was found to be 4690 nM. Besides, the Ki in series [3] was 391 nM. The Ki in series [4] (setting [5]) worked out at 0.308 µM.

`NS(=O)(=O)c1ccc(CCN2C(=O)/C(=C/c3ccc(F)cc3)C=C2c2ccc(Cl)cc2)cc1` [Compound 3n, (E)-4-(2-(5-(4-chlorophenyl)-3-(4-fluorobenzylidene)-2-oxo-2,3-dihydro-1H-pyrrol-1-yl)ethyl)benzenesulphonamide] yielded a melting point of 159 to 160 °C. The compound further gave a Ki in series [1] (setting [5]) of 1.42 µM. The same compound yielded a Ki in series [2] of 466 nM. The affinity in series [3] corresponds to a Ki of 41.3 nM. In series [4] (setting [5]), this compound came in with a Ki of 0.0391 µM.

Compound `CCc1ccc(C2=C/C(=C\c3ccc(F)cc3)C(=O)N2CCc2ccc(S(N)(=O)=O)cc2)cc1` [Compound 3j, (E)-4-(2-(5-(4-ethylphenyl)-3-(4-fluorobenzylidene)-2-oxo-2,3-dihydro-1H-pyrrol-1-yl)ethyl)benzenesulphonamide] yielded a melting point of 185 to 186 °C. Further, affinity in series [1] (setting [5]) was put at a Ki of 0.836 µM. In series [2], the inhibition constant Ki was 296 nM. In series [3], this compound gave an inhibitory constant (Ki) of 71.4 nM. The same compound had a Ki in series [4] (setting [5]) of 0.0662 µM.

Compound `NS(=O)(=O)c1ccc(CCN2C(=O)/C(=C/c3ccc(Br)cc3)C=C2c2ccccc2)cc1` [Compound 3d, (E)-4-(2-(3-(4-bromobenzylidene)-2-oxo-5-phenyl-2,3-dihydro-1H-pyrrol-1-yl)ethyl)benzenesulphonamide] returned a melting point of 214 to 215 °C. This compound also gave a Ki in series [1] (setting [5]) of 4.25 µM. The Ki in series [2] worked out at 1430 nM. In addition, the Ki in series [3] turned out to be 112 nM. For the same compound, in series [4] (setting [5]), the inhibitory constant (Ki) is 0.0898 µM.

With `CCc1ccc(C2=C/C(=C\c3ccc(Br)cc3)C(=O)N2CCc2ccc(S(N)(=O)=O)cc2)cc1` [Compound 3l, (E)-4-(2-(3-(4-bromobenzylidene)-5-(4-ethylphenyl)-2-oxo-2,3-dihydro-1H-pyrrol-1-yl)ethyl)benzenesulphonamide], the melting point fell in the range of 188 to 189 °C. This compound also came in with a Ki in series [1] (setting [5]) of 6.76 µM. This compound had a Ki in series [2] of 3710 nM. The compound further displayed a Ki in series [3] of 77.5 nM. In addition, the affinity in series [4] (setting [5]), expressed as Ki, was 0.0563 µM.

Regarding `CCc1ccc(C2=C/C(=C\c3ccccc3)C(=O)N2CCc2ccc(S(N)(=O)=O)cc2)cc1` [Compound 3i, (E)-4-(2-(3-benzylidene-5-(4-ethylphenyl)-2-oxo-2,3-dihydro-1H-pyrrol-1-yl)ethyl)benzenesulphonamide], the melting point is 183 to 184 °C. Moreover, the affinity in series [1] (setting [5]), expressed as Ki, was 1.79 µM. In addition, the affinity in series [2], expressed as Ki, was 901 nM. In addition, in series [3], the Ki is 78.3 nM. In series [4] (setting [5]), this compound displayed a Ki of 0.0839 µM.

Take `CCc1ccc(C2=C/C(=C\c3ccc(Cl)cc3)C(=O)N2CCc2ccc(S(N)(=O)=O)cc2)cc1` [Compound 3k, (E)-4-(2-(3-(4-chlorobenzylidene)-5-(4-ethylphenyl)-2-oxo-2,3-dihydro-1H-pyrrol-1-yl)ethyl)benzenesulphonamide]: the melting point is 186 to 187 °C. In series [1] (setting [5]), this compound had a Ki of 5.93 µM. The compound also came in with a Ki in series [2] of 1620 nM. In series [3], this compound yielded a Ki of 102 nM. Also, the Ki in series [4] (setting [5]) was 0.0911 µM.

Turning to `NS(=O)(=O)c1ccc(CCN2C(=O)/C(=C/c3ccccc3)C=C2c2ccc(Cl)cc2)cc1` [Compound 3m, (E)-4-(2-(3-benzylidene-5-(4-chlorophenyl)-2-oxo-2,3-dihydro-1H-pyrrol-1-yl)ethyl)benzenesulphonamide], the melting point is 189 to 190 °C. Also, the Ki in series [1] (setting [5]) worked out at 2.26 µM. This compound also gave a Ki in series [2] of 780 nM. The affinity in series [3], expressed as Ki, was 54.6 nM. In series [4] (setting [5]), this compound returned a Ki of 0.0617 µM.

`NS(=O)(=O)c1ccc(CCN2C(=O)/C(=C/c3ccc(Cl)cc3)C=C2c2ccccc2)cc1` [Compound 3c, (E)-4-(2-(3-(4-chlorobenzylidene)-2-oxo-5-phenyl-2,3-dihydro-1H-pyrrol-1-yl)ethyl)benzenesulphonamide]: the melting point fell in the range of 192 to 193 °C. For the same compound, in series [1] (setting [5]), the affinity, expressed as Ki, was 3.25 µM. In addition, the affinity in series [2] corresponds to a Ki of 718 nM. The Ki in series [3] was found to be 108 nM. Also, the Ki in series [4] (setting [5]) was 0.0765 µM.

Take `Cc1ccc(C2=C/C(=C\c3ccc(F)cc3)C(=O)N2CCc2ccc(S(N)(=O)=O)cc2)cc1` [Compound 3f, (E)-4-(2-(3-(4-fluorobenzylidene)-2-oxo-5-(p-tolyl)-2,3-dihydro-1H-pyrrol-1-yl)ethyl)benzenesulphonamide]: the melting point lay within 196 to 197 °C. Moreover, the affinity in series [1] (setting [5]), expressed as Ki, was 2.53 µM. The compound further gave a Ki in series [2] of 147 nM. The compound also displayed a Ki in series [3] of 103 nM. This compound also returned an inhibition constant Ki in series [4] (setting [5]) of 0.0427 µM.

Consider `Cc1ccc(C2=C/C(=C\c3ccc(Br)cc3)C(=O)N2CCc2ccc(S(N)(=O)=O)cc2)cc1` [Compound 3h, (E)-4-(2-(3-(4-bromobenzylidene)-2-oxo-5-(p-tolyl)-2,3-dihydro-1H-pyrrol-1-yl)ethyl)benzenesulphonamide], for which the melting point lay in the range of 233 to 234 °C. Further, the Ki in series [1] (setting [5]) is 4.19 µM. In series [2], this compound registered a Ki of 1870 nM. The affinity in series [3], expressed as Ki, was 84.2 nM. Further, affinity in series [4] (setting [5]) was put at a Ki of 0.094 µM.
